Data taken from patent US20050197350A1, “Novel quinoline, tetrahydroquinazoline, and pyrimidine derivatives and methods of treatment related to the use thereof” (TAISHO PHARMACEUTICAL CO., LTD., priority 2003, published 2005).
Read-outs that look alike come from different tables or passages of the source.

Tested on: MCH receptors
Test: MCH receptor activity class (method not given)
[1] = class by percent of control at 10^-7 M or IC50
[2] = class 1-3 by percent of control at 10^-7 M or IC50
[3] = activity class 1-3: percent of control at 10^-7 M or IC50
[4] = class by percent of control at 10^−7 M or IC50
[5] = activity class per percent of control at 10^-7 M or IC50
[6] = MCH receptor, class by percent of control at 10^-7 M or IC50

For `CSc1ccc(Cl)c(C(=O)N[C@H]2CC[C@@H](Nc3cc(N(C)C)c4ccccc4n3)CC2)c1` [compound 781], the class [1] was 3 (Class 3 The value of percent of control at 10^−7 M was more than 60% or the value of IC50 was more than 200 nM.).

For `COC(C(=O)N[C@H]1CC[C@@H](Nc2nccc(N(C)C)n2)CC1)c1ccccc1` (relative stereo) [compound 916], the class [1] was 3 (Class 3 The value of percent of control at 10^−7 M was more than 60% or the value of IC50 was more than 200 nM.).

With `Cc1cc(N(C)C)nc(N[C@H]2CC[C@@H](C(=O)NCc3ccc(Cl)cc3Cl)CC2)n1` [Example 2572, cis-N-(2,4-dichlorobenzyl)-4-{[4-(dimethylamino)-6-methylpyrimidin-2-yl]amino}cyclohexanecarboxamide] the class was 1.

For `CN(C)c1nc(N[C@H]2CC[C@@H](NC(=O)c3cn(Cc4ccccc4)c4ccccc34)CC2)nc2c1CCCC2` [compound 967], the class [1] was 3 (Class 3 The value of percent of control at 10^−7 M was more than 60% or the value of IC50 was more than 200 nM.).

`CN(C)c1nc(N[C@H]2CC[C@@H](NC(=O)c3cc(Cl)sc3Cl)CC2)nc2c1CCCC2` [compound 519, 2,5-dichloro-N-(cis-4-{[4-(dimethylamino)-5,6,7,8-tetrahydroquinazolin-2-yl]amino}cyclohexyl)thiophene-3-carboxamide] was tested, and the class [2] was 1 (Class 1: The value of percent of control at 10^−7 M was less than 40% or the value of IC50 was less than 50 nM.).

With `CN(C)c1nc(N[C@H]2CC[C@@H](CNC(=O)Oc3ccc4ccccc4c3)CC2)nc2c1CCCC2` [compound 1609] the class [3] was 3 (Class 3 The value of percent of control at 10^−7 M was more than 60% or the value of IC50 was more than 200 nM.).

With `CN(C)c1nc(N[C@H]2CC[C@@H](CNC(=O)Nc3cccc(Cl)c3Cl)CC2)nc2c1CCCC2` [compound 2486] the class [1] was 3 (Class 3 The value of percent of control at 10^−7 M was more than 60% or the value of IC50 was more than 200 nM.).

`CN(C)c1cc(N[C@H]2CC[C@@H](CNC(=O)OCC(Cl)(Cl)Cl)CC2)nc2ccccc12` [compound 1578] was tested, and the class [3] was 3 (Class 3 The value of percent of control at 10^−7 M was more than 60% or the value of IC50 was more than 200 nM.).

In the case of `Cc1cccc(CNC[C@H]2CC[C@@H](Nc3cc(N(C)C)c4ccccc4n3)CC2)c1` [compound 1184], the class [1] is reported as 3 (Class 3 The value of percent of control at 10^−7 M was more than 60% or the value of IC50 was more than 200 nM.).

With `Cc1cccc(C(=O)N[C@H]2CC[C@@H](Nc3ncc(C)c(N(C)C)n3)CC2)c1` [compound 2937, N-(cis-4-{[4-(dimethylamino)-5-methylpyrimidin-2-yl]amino}cyclohexyl)-3-methylbenzamide] the class [4] was 1 (Class 1: The value of percent of control at 10^−7 M was less than 40% or the value of IC50 was less than 50 nM.).

With `COc1cccc(C(=O)NC[C@H]2CC[C@@H](Nc3nc4c(c(N(C)C)n3)CCCC4)CC2)c1` [compound 582] the class [2] was 3 (Class 3 The value of percent of control at 10^−7 M was more than 60% or the value of IC50 was more than 200 nM.).

`CN(C)c1nc(N[C@H]2CC[C@@H](NC(=O)c3cc(Cl)ccc3O)CC2)nc2c1CCCC2` [compound 1055] was tested, and the class [5] was 1 (Class 1: The value of percent of control at 10^−7 M was less than 40% or the value of IC50 was less than 50 nM.).

With `CN(C)c1ccnc(N[C@H]2CC[C@@H](CNC(=O)c3cccc(OC(F)(F)F)c3)CC2)n1` [compound 399] the class [1] was 3 (Class 3 The value of percent of control at 10^−7 M was more than 60% or the value of IC50 was more than 200 nM.).

With `CC(C)Oc1ccc(CNC[C@H]2CC[C@@H](Nc3cc(N(C)C)c4ccccc4n3)CC2)cc1` [compound 1156] the class [1] was 3 (Class 3 The value of percent of control at 10^−7 M was more than 60% or the value of IC50 was more than 200 nM.).

`CCOc1ccc(OCC)c(CNC[C@H]2CC[C@@H](Nc3cc(N(C)C)c4ccccc4n3)CC2)c1` [compound 1169] was tested, and the class [1] was 2 (Class 2: The value of percent of control at 10^−7 M was from 40% to 60% or the value of IC′50 was from 50 nM to 200 nM.).

`Cc1cnc(N[C@H]2CC[C@@H](NC(=O)c3cccnc3Oc3cccc(C(F)(F)F)c3)CC2)nc1N(C)C` [compound 2895] was tested, and the class [4] was 1 (Class 1: The value of percent of control at 10^−7 M was less than 40% or the value of IC50 was less than 50 nM.).

With `COc1cccc(OC)c1CN[C@H]1CC[C@@H](Nc2nccc(N(C)C)n2)CC1` [compound 1205] the class [1] was 3 (Class 3 The value of percent of control at 10^−7 M was more than 60% or the value of IC50 was more than 200 nM.).

In the case of `COc1ccc(NC(=O)N[C@H]2CC[C@@H](Nc3nc4c(c(N(C)C)n3)CCCC4)CC2)c(OC)c1` [compound 1711, N-(2,4-dimethoxyphenyl)-N′-(cis-4-{[4-(dimethylamino)-5,6,7,8-tetrahydroquinazolin-2-yl]amino}cyclohexyl)urea], the class [1] is reported as 2 (Class 2: The value of percent of control at 10^−7 M was from 40% to 60% or the value of IC′50 was from 50 nM to 200 nM.).

With `CN(C)c1nc(N[C@H]2CC[C@@H](NC(=S)Nc3ccc(I)cc3)CC2)nc2c1CCCC2` [compound 1752] the class [1] was 2 (Class 2: The value of percent of control at 10^−7 M was from 40% to 60% or the value of IC′50 was from 50 nM to 200 nM.).

For `Cc1cc(C(=O)N[C@H]2CC[C@@H](Nc3cc(N(C)C)c4ccccc4n3)CC2)nn1C(C)(C)C` [compound 90], the class [6] was 3 (Class 3 The value of percent of control at 10^−7 M was more than 60% or the value of IC50 was more than 200 nM.).

`Cc1ccccc1CNC(=O)N[C@H]1CC[C@@H](Nc2nc3c(c(N(C)C)n2)CCCC3)CC1` [compound 1716] was tested, and the class [1] was 3 (Class 3 The value of percent of control at 10^−7 M was more than 60% or the value of IC50 was more than 200 nM.).

`Cc1cc(C)c(NC(=S)N[C@H]2CC[C@@H](Nc3nc4c(c(N(C)C)n3)CCCC4)CC2)c(C)c1` [compound 1755] was tested, and the class [1] was 1 (Class 1: The value of percent of control at 10^−7 M was less than 40% or the value of IC50 was less than 50 nM.).

With `Cc1cccc(NC(=S)N[C@H]2CC[C@@H](Nc3nc4c(c(N(C)C)n3)CCCC4)CC2)c1C` [compound 1779] the class [1] was 3 (Class 3 The value of percent of control at 10^−7 M was more than 60% or the value of IC50 was more than 200 nM.).

In the case of `CN(C)c1nc(N[C@H]2CC[C@@H](CNC(=O)c3c(F)ccc(F)c3F)CC2)nc2c1CCCC2` [compound 662], the class [1] is reported as 3 (Class 3 The value of percent of control at 10^−7 M was more than 60% or the value of IC50 was more than 200 nM.).

In the case of `CN(C)c1nc(N[C@H]2CC[C@@H](NC(=O)c3cccc(C(=O)c4ccccc4)c3)CC2)nc2c1CCCC2` [compound 1009], the class [5] is reported as 3 (Class 3 The value of percent of control at 10^−7 M was more than 60% or the value of IC50 was more than 200 nM.).

In the case of `CN(C)c1ccnc(N[C@H]2CC[C@@H](CNCc3ccsc3)CC2)n1` [compound 1304], the class [1] is reported as 3 (Class 3 The value of percent of control at 10^−7 M was more than 60% or the value of IC50 was more than 200 nM.).

`CN(C)c1nc(N[C@H]2CC[C@@H](CNC(=O)c3cncc(Br)c3)CC2)nc2c1CCCC2` [compound 650] was tested, and the class [1] was 3 (Class 3 The value of percent of control at 10^−7 M was more than 60% or the value of IC50 was more than 200 nM.).

For `COc1cc(CCN[C@H]2CC[C@@H](Nc3nc4c(c(N(C)C)n3)CCCC4)CC2)cc(OC)c1` [compound 1493], the class [1] was 2 (Class 2: The value of percent of control at 10^−7 M was from 40% to 60% or the value of IC′50 was from 50 nM to 200 nM.).

`COc1ccc2ccccc2c1CNC[C@H]1CC[C@@H](Nc2cc(N(C)C)c3ccccc3n2)CC1` [compound 1128] was tested, and the class [5] was 3 (Class 3 The value of percent of control at 10^−7 M was more than 60% or the value of IC50 was more than 200 nM.).

`CC(C)c1ccccc1NC(=O)N[C@H]1CC[C@@H](Nc2cc(N(C)C)c3ccccc3n2)CC1` [compound 2110] was tested, and the class [1] was 3 (Class 3 The value of percent of control at 10^−7 M was more than 60% or the value of IC50 was more than 200 nM.).

With `CN(C)c1ccnc(N[C@H]2CC[C@@H](CNCc3cc(Cl)cc(Cl)c3)CC2)n1` [compound 1308] the class [1] was 3 (Class 3 The value of percent of control at 10^−7 M was more than 60% or the value of IC50 was more than 200 nM.).

In the case of `CN(C)c1nc(N[C@H]2CC[C@@H](NC(=O)NC34CC5CC(CC(C5)C3)C4)CC2)nc2c1CCCC2` (relative stereo) [compound 1807], the class [1] is reported as 3 (Class 3 The value of percent of control at 10^−7 M was more than 60% or the value of IC50 was more than 200 nM.).

`CN(C)c1ccnc(N[C@H]2CC[C@@H](NC(=S)Nc3cccc4ccccc34)CC2)n1` [compound 2264] was tested, and the class [1] was 3 (Class 3 The value of percent of control at 10^−7 M was more than 60% or the value of IC50 was more than 200 nM.).

For `CCCCCC(=O)N[C@H]1CC[C@@H](Nc2cc(N(C)C)c3ccccc3n2)CC1` [compound 40], the class [6] was 3 (Class 3 The value of percent of control at 10^−7 M was more than 60% or the value of IC50 was more than 200 nM.).

In the case of `COc1cc(Cl)ccc1CNC[C@H]1CC[C@@H](Nc2nccc(N(C)C)n2)CC1` [compound 1536], the class [3] is reported as 3 (Class 3 The value of percent of control at 10^−7 M was more than 60% or the value of IC50 was more than 200 nM.).

For `CSc1ncccc1C(=O)NC[C@H]1CC[C@@H](Nc2cc(N(C)C)c3ccccc3n2)CC1` [compound 169], the class [6] was 3 (Class 3 The value of percent of control at 10^−7 M was more than 60% or the value of IC50 was more than 200 nM.).

In the case of `CN(C)c1nc(N[C@H]2CC[C@@H](CNC(=O)c3cccc4c3-c3ccccc3C4=O)CC2)nc2c1CCCC2` [compound 661], the class [1] is reported as 3 (Class 3 The value of percent of control at 10^−7 M was more than 60% or the value of IC50 was more than 200 nM.).

With `CN(C)c1nc(N[C@H]2CC[C@@H](NC(=O)Nc3ccc(OCc4ccccc4)cc3)CC2)nc2c1CCCC2` [compound 1881] the class [1] was 3 (Class 3 The value of percent of control at 10^−7 M was more than 60% or the value of IC50 was more than 200 nM.).

In the case of `COc1ccc2[nH]cc(CN[C@H]3CC[C@@H](Nc4cc(N(C)C)c5ccccc5n4)CC3)c2c1` [compound 1090], the class [5] is reported as 3 (Class 3 The value of percent of control at 10^−7 M was more than 60% or the value of IC50 was more than 200 nM.).
